From patent US20250213700A1, “COMPOUNDS, COMPOSITIONS, AND METHODS FOR CELL-SPECIFIC PHARMACOLOGY” (Duke University, priority 2022, published 2025)

Key:
AMPAR = assay: whole-mount retina, AMPAR-mediated evoked EPSC in retinal ganglion cells; format: cell-based, mouse; settings: 300 nM, 15 min
Experimental: (FIG. 6A) Viral strategy (top panel). […] Experimental overview (second panel from the top to bottom panel). Top: whole retina; synaptic current is evoked (stim) and recorded (voltage-clamp of dTomato+ RGC), with ionic and pharmaceutical conditions chosen to isolate the AMPAR or GABAAR. A 10 min baseline is followed by 15 min application of 300 nM Rx^DART.2+30 nM Alexa^647.1DART.2. […] (FIG. 6B) CMPDA.2^DART.2 (left). Electropositive spacer (PDB 3RNN). […] AMPAR structural model (middle) (composite of PDB 5WEO, 3RNN, and 1FTL). Cylinder depicts cell membrane. […] YM90K.1^DART.2 (right). Structural model (PDB 1FTL). […] (FIG. 6C) diazepam.1^DART.2 (left). Structural model (PDB 6HUP). […] GABAAR (middle) structural model (composite of PDB 6HUP and 6HUK). […] Structural model (PDB 6HUK).
Preparation of Retina: Mice were intravitreal injected AAV10 HaloTag™-dTomato to eyes. After 8-12 weeks, the mice killed by cervical dislocation. Both eyes were removed and dissected under a stereo-microscope. Retinas were isolated from the eyecups and placed in oxygenated (95% O2/5% CO2) cold-Ames medium (Sigma-Aldrich), supplemented with 21 mM NaHCO3. After the vitreous body was removed, a retina was cut into 3 pieces, leaving each retina piece attached to a filter paper with 2 mm hole by retina ganglion-cell-side-down. The pieces of retina were stored in bubbled Ames solution at room temperature, then transferred to recording chamber with retina ganglion-cell-side-up for recording.
Whole-cell patch-clamp recording: The brain slices or retinas were perfused with bubbled aCSF at 29-30° C. with a 2 ml/min flow rate. Recordings were made by whole cell patch recording techniques using a Multiclamp 700B amplifier (Molecular Devices, Axon Instruments Inc., Union City, CA). The signals were filtered at 10 KHz and acquired using Digitate 1440A and pClamp 10.7 (Molecular Devices). The recording pipettes (4 MΩ-6 MΩ) were filled with internal solutions. For GABAA receptor-mediated evoked inhibitory postsynaptic currents ([…]) recording, the pipettes filled with Cesium Chloride-based internal solution (in mM) 135 CsCl, 2 MgCl2, 0.5 EGTA, 10 HEPES, 4 Mg-ATP, 0.5 Na-GTP, 10 Na2-phosphocreatine, and QX314 (lidocaine N-ethyl bromide), pH adjusted to 7.3 with CsOH (290 mosm). For AMPA-receptor mediated evoked excitatory postsynaptic currents (eEPSCs) recording, the pipette solution contained (in mM) 130 CsMeS, 1 MgCl2, 0.5 EGTA, 10 HEPES, 4 Mg-ATP, 0.5 Na-GTP, 10 Na2-phosphocreatine, and 4 QX314, pH adjusted to 7.3 with CsOH (290 mosm). For experiment of brain slices and retinas, the eIPSCs or eEPSCs were elicited by electrical stimuli at 0.067 Hz in 0.3-ms duration and 150-300-ρA (60-70% maximum responses) stimulation intensity at a holding potential of −70 mV. The stimulating electrode was placed within 60-100 μm from the recording neuron under voltage-clamp mode. GABA-receptor mediated eIPSCs were isolated in the presence of DNQX ([…] AMPAR antagonist) and AP-V ([…] antagonist) in the bath solution. For AMPA-receptor mediated eEPSCs, added picrotoxin ([…], GABAAR antagonist) and AP-V ([…]) to the bath solution.

endogenous GABAARs = assay: all-optical assay of GABAAR antagonism in primary neuronal culture; format: cell-based, rat
Experimental: Cultured neuronal assays: Preparation of hippocampal cultures: Mixed glial and neuronal cultures were prepared from the hippocampus of postnatal day 0 to 1 Sprague-Dawley rat pups. Separate pools of dissociated cells were transfected via electroporation (LONZA, V4SP-3096) with plasmid constructs, and depending on assay directives, either plated individually or mixed with a different pool of electroporated cells after a 10 min recovery period. Cells were cultured on coverslips (Deckglaser) pre-treated with high molecular weight poly-D-lysine (Sigma, P7405; 0.05 mg/mL) in 24-well plates and maintained in NbActiv4 (BrainBits, Nb4-500) at 37 C, 5% CO2. Media was changed by half at DIV3 or 4 and then weekly thereafter; experiments were performed between DIV16 to DIV18.
Gabazine: Dissociated neurons were electroporated with constructs and cultured for 2 weeks. The assay was performed in the same BASE solution as described above, but with the addition of synaptic blockers CPP (NMDAR antagonist; Tocris) and NBQX (AMPAR antagonist; Abcam, ab120046) to isolate GABAR activity, and a small amount of GABA (GABAR agonist; Sigma) to ensure GABAR activity (=GABAR-BASE). […] Instead, a high dose of regular gabazine was used to completely silence any cells that may not have had realized full antagonism by the end of the assay. Imaging alignment, proof-reading and analysis were performed in a similar fashion to the AMPAR assay using MatLab.
It was next focused on blocking the GABAAR, a ubiquitous transducer of synaptic inhibition. […] The structure-activity literature of gabazine, a selective GABAAR antagonist, was explored. The core gabazine pharmacophore includes of a 3-amino, 6-phenoxy-pyridazine ring, with GABA embedded in the 2-position (2 butyric acid). Based on historical, low-potency predecessors of gabazine, a longer GABA moiety (2 pentanoic acid), and methyl substituents (e.g., 5-CH3) were explored (FIG. 2F). For each variant, the 6-phenoxy moiety was modified to make a gabazinealkyne module, which was click-conjugated to DART.2. Several variants were made, including gabazine.1^DART.2 (2 butyric acid, 5-H), gabazine.5DART.2 (2 pentanoic acid, 5-H), and gabazine.7DART.2 (2 pentanoic acid, 5-CH3). An all-optical assay of endogenous GABAARs in primary neuronal culture was then developed. […] Excitatory synapses were blocked, such that opto-stimulation with ChR2 became the only source of neural excitation.

COc1cc(CCCCl)ccc1CCOCCNC(=O)c1ccc(CNC(=O)CCOCCOCCOCCOCCOCCOCCOCCOCCOCCOCCOCCOCCOCCOCCOCCOCCOCCOCCOCCOCCOCCOCCOCCOCCOCCOCCOCCOCCOCCOCCOCCOCCOCCOCCOCCOCCn2cc(COCCOCCOCCOCCOCCOCCNC(=O)CCCn3c(=O)c(=O)[nH]c4cc([N+](=O)[O-])c(-n5ccnc5)cc43)nn2)cc1 [YM90K.1DART.2]
AMPAR evoked EPSC block, +HTP cells (AMPAR): blocked the AMPAR-mediated EPSC | AMPAR evoked EPSC block, +HTP cells (AMPAR; listed as YM90K.1^DART.2): blocked on ^+HTP cells

COc1cc(CCCCl)ccc1CCOCCNC(=O)c1ccc(CNC(=O)CCOCCOCCOCCOCCOCCOCCOCCOCCOCCOCCOCCOCCOCCOCCOCCOCCOCCOCCOCCOCCOCCOCCOCCOCCOCCOCCOCCOCCOCCOCCOCCOCCOCCOCCOCCOCCn2cc(COCCOCCOCCOCCOCCOCCOCCCCCCOc3ccc(-c4nn(CCCCC(=O)O)c(=N)cc4C)cc3)nn2)cc1 [gabazine.7DART.2]
increase in DW vs gabazine.1DART.2 (endogenous GABAARs): ~6 fold | increase in HTL50 vs gabazine.1DART.2 (endogenous GABAARs): ~3 fold | increase in Rx50 vs gabazine.1DART.2 (endogenous GABAARs): ~20 fold | DW (t=15 m) (endogenous GABAARs; ddHTP vs +HTP cells, 15 min, 15 uM GABA): 3,000
